# Like-named read-outs stand apart in the source and are kept apart here.
# Test: logP determination by HPLC on reversed-phase column (EEC Directive 79/831 Annex V.A8)
# Assay type: physicochemical
# Details: reversed-phase HPLC column (C18), preparation examples
# Description: The logP values indicated were determined in accordance with EEC Directive 79/831 Annex V.A8 by means of HPLC (High Performance Liquid Chromatography) on a reversed-phase column (C 18). Temperature: 43° C. (a) Eluents for determination in the acidic range: 0.1% aqueous phosphoric acid, acetonitriie; linear gradient from 10% acetonitrile to 90% acetonitrile. (b) Eluents for determination in the neutral range: 0.01 molar aqueous phosphate buffer solution, acetonitrile; linear gradient from 10% acetonitrile to 90% acetonitrile.
# [1] = pH 2.3, HPLC C18, 43° C., read-out: logP (pH 2.3)
SMILES,chromatographic logP [1],"chromatographic logP (pH 7.5, HPLC C18, 43° C., read-out: logP (pH 7.5))"
Cc1ccc(S(=O)(=O)Nn2c(-c3cc(C)cc(C)c3)nc(C)c2C)cc1 [IV-1],1.69,
Cc1cc(C)cc(-c2nc(C)c(C)n2N)c1 [II-1],0.96,
Cc1ccc(C(=O)Nn2c(-c3ccccc3)nc(C)c2C)cc1 [Example I-2],,2.17
CCc1ccc(C(=O)Nn2c(-c3cc(C)cc(C)c3)nc(C)c2C)cc1 [Example I-1],1.97,
